US20230123334A1, “AMINO LIPID COMPOUND, PREPARATION METHOD THEREFOR, AND APPLICATION THEREOF” (SHENZHEN SHENXIN BIOTECHNOLOGY CO., LTD., priority 2020, published 2023)

The compounds below were run on HEK293 cells (assay: Preliminary screening as DNA vectors, GFP transfection of HEK293 cells). Conditions: amino lipid/DOPE liposome with 75 ng plasmid DNA (psin-EGFP-IRES-Puro); number of GFP-expressing cells divided by total nuclei (Hoechst).
Type: cell-based
Description: Cell line: HEK293 cells (ATCC CRL-1573™)
Medium: DMEM supplemented with 10% fetal bovine serum (Invitrogen)
Mode of screening: cell transfection on 96-well plates
Detection (readout): percentage of the number of GFP fluorescent cells relative to the total number of cells (the total number of cells was measured using nucleus dye Hoechst—see FIG. 2). Lipofectamine2000 (Invitrogen) was used as positive control, according to the manufacturer's instructions.
Method: an 8-channel pipette was used for sample addition. The contents shown were for a single well of a 96-well flat plate.
1. The compound (0.01 mmol) prepared in Example 1 was dissolved in 1 mL of anhydrous ethanol. After ultrasonically dissolved, 10 μL of the resultant amino lipid solution in ethanol was taken and mixed with 5 μL of DOPE solution in ethanol (0.01 m), and then to the obtained mixture was added 35 μL of 0.2M sodium acetate buffer (pH 5.6), and 50 μL of liposome solution was prepared by vortex at a constant rotating speed for 30 s. 4 μL was taken from the 50 μL liposome solution and added to 46 μL of 0.02M sodium acetate buffer (pH 5.6), and the final liposome solution was formed by vortex at a constant rotating speed for 30 s. 5 μL was taken from the final liposome solution and mixed with 75 ng plasmid DNA (psin-EGFP-IRES-Puro, Clontech) dissolved in 5 μL of 0.02 M sodium acetate buffer, and was allowed to stay at room temperature for 30 min to form a lipid/DNA transfection complex.
2. 10 μL of the lipid/DNA transfection complex was incubated at room temperature for 30 min, followed by addition of 90 μL of fresh resuspended cells (3-5×10^4 cells) and mixing with a pipette. 100 μL of cells+lipid/DNA complex was transferred to separate wells of a 96-well culture plate immediately, and placed in an incubator containing 5% CO2 at 37° C.
3. Hoechst33258 (Invitrogen) was added at a final concentration of 0.2 μg/mL to the cells 20 to 24 hours after initial cell transfection, and cultured in darkness at 37° C. for 15 min. Afterwards, the cells were washed once with a PBS solution, and then added with medium for culture for 20 to 24 h.
4. The cells were placed in a high-throughput confocal microscope (Molecular Devices ImageXpress), and four visual fields of the image of the cells were captured for each well, and images at three laser wavelengths were captured for each sample: bright field images of cells (FIG. 2(a) and FIG. 2(b)), Hoechst-staining images showing total nuclei (FIG. 2(c) and FIG. 2(d)) and GFP images showing success in transfection with the plasmid DNA and the expression of GFP (FIG. 2(e) and FIG. 2(f)). MetaXpress software was used to separately count the cells in the Hoechst-staining images and GFP images, and then the number of cells expressing GFP was divided by the total number of nuclei to give the absolute cell transfection efficiency. The absolute transfection efficiency was calculated as follows: […]

SMILES | Absolute DNA transfection efficiency in HEK293 cells
CCCCCCCCCCCCNc1nc(NCCCN2CCN(C)CC2)nc(SCCCCCC)n1 [S6N12 D9] | 38.8%
CCCCCCCCCCCCNc1nc(NCC2CCN(C)CC2)nc(SCCCCCC)n1 [S6N12 D10] | 21.3%
CCCCCCCCCCCCCNc1nc(NCCN(C)C)nc(SCCCCCC)n1 [S6N13 D1] | 6.5%
CCCCCCCCCCCCCNc1nc(NCCN2CCOCC2)nc(SCCCCCC)n1 [S6N13 D2] | 1.9%
CCCCCCCCCCCCCNc1nc(NCCN2CCCC2)nc(SCCCCCC)n1 [S6N13 D3] | 9.9%
CCCCCCCCCCCCCNc1nc(NCCN2CCCCC2)nc(SCCCCCC)n1 [S6N13 D4] | 2.1%
CCCCCCCCCCCCCNc1nc(NCCN2CCN(C)CC2)nc(SCCCCCC)n1 [S6N13 D5] | 24.1%
CCCCCCCCCCCCCNc1nc(NCCCN(C)C)nc(SCCCCCC)n1 [S6N13 D6] | 12.9%
CCCCCCCCCCCCCNc1nc(NCCN(CC)CC)nc(SCCCCCC)n1 [S6N13 D7] | 2.0%
CCCCCCCCCCCCCNc1nc(NCCCN2CCOCC2)nc(SCCCCCC)n1 [S6N13 D8] | 4.9%
CCCCCCCCCCCCCNc1nc(NCCCN2CCN(C)CC2)nc(SCCCCCC)n1 [S6N13 D9] | 38.3%
CCCCCCCCCCCCCNc1nc(NCC2CCN(C)CC2)nc(SCCCCCC)n1 [S6N13 D10] | 51.6%
CCCCCCCCCCCCCCCNc1nc(NCCN(C)C)nc(SCCCCCC)n1 [S6N15 D1] | 5.8%
CCCCCCCCCCCCCCCNc1nc(NCCN2CCOCC2)nc(SCCCCCC)n1 [S6N15 D2] | 2.0%
CCCCCCCCCCCCCCCNc1nc(NCCN2CCCC2)nc(SCCCCCC)n1 [S6N15 D3] | 15.9%
CCCCCCCCCCCCCCCNc1nc(NCCN2CCCCC2)nc(SCCCCCC)n1 [S6N15 D4] | 1.7%
CCCCCCCCCCCCCCCNc1nc(NCCN2CCN(C)CC2)nc(SCCCCCC)n1 [S6N15 D5] | 22.3%
CCCCCCCCCCCCCCCNc1nc(NCCCN(C)C)nc(SCCCCCC)n1 [S6N15 D6] | 25.9%
CCCCCCCCCCCCCCCNc1nc(NCCN(CC)CC)nc(SCCCCCC)n1 [S6N15 D7] | 1.2%
CCCCCCCCCCCCCCCNc1nc(NCCCN2CCOCC2)nc(SCCCCCC)n1 [S6N15 D8] | 3.3%
CCCCCCCCCCCCCCCNc1nc(NCCCN2CCN(C)CC2)nc(SCCCCCC)n1 [S6N15 D9] | 28.4%
CCCCCCCCCCCCCCCNc1nc(NCC2CCN(C)CC2)nc(SCCCCCC)n1 [S6N15 D10] | 31.1%
CCCCCCCCCCCCCCCCNc1nc(NCCN(C)C)nc(SCCCCCC)n1 [S6N16 D1] | 6.6%
CCCCCCCCCCCCCCCCNc1nc(NCCN2CCOCC2)nc(SCCCCCC)n1 [S6N16 D2] | 1.4%
CCCCCCCCCCCCCCCCNc1nc(NCCN2CCCC2)nc(SCCCCCC)n1 [S6N16 D3] | 19.8%
CCCCCCCCCCCCCCCCNc1nc(NCCN2CCCCC2)nc(SCCCCCC)n1 [S6N16 D4] | 2.4%
CCCCCCCCCCCCCCCCNc1nc(NCCN2CCN(C)CC2)nc(SCCCCCC)n1 [S6N16 D5] | 19.6%
CCCCCCCCCCCCCCCCNc1nc(NCCCN(C)C)nc(SCCCCCC)n1 [S6N16 D6] | 22.8%
CCCCCCCCCCCCCCCCNc1nc(NCCN(CC)CC)nc(SCCCCCC)n1 [S6N16 D7] | 2.6%
CCCCCCCCCCCCCCCCNc1nc(NCCCN2CCOCC2)nc(SCCCCCC)n1 [S6N16 D8] | 4.2%
